Source: patent US9187458B2, “Cyanoquinoline derivatives” (Tianjin Hemay Bio-Tech Co., LTD., priority 2010, dated 2015)
pEC50, pIC50: −log10 of the molar value.

Tests used:
[1] = target: T1, EGFR-TK (Homo sapiens, UniProt P00533); experiment: Inhibition Test on EGFR-TK (ELISA, PGT substrate); format: biochemical; conditions: 20 min at room temperature, read-out: Inhibition Activity (EC50) on EGFR-TK phosphorylation
T1 construct: EGFR-TK: intracellular epidermal growth factor receptor phosphorylase
T1 sequence (P00533 669-1210 limits assumed): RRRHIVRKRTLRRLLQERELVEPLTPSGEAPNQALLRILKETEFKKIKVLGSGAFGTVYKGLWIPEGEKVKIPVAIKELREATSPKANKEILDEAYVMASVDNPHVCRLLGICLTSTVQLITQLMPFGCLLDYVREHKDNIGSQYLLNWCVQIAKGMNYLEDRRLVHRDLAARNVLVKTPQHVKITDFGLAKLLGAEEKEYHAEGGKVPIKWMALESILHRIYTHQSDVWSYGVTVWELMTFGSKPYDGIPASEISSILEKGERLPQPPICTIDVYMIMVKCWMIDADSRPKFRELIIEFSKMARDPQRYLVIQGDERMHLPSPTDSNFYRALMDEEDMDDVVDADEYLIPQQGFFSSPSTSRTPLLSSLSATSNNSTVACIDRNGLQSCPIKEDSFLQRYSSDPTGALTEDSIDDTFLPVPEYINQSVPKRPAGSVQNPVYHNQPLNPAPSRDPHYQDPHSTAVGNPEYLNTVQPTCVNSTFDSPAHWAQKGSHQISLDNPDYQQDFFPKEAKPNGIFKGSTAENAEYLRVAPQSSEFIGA
Protocol: Inhibition Test on EGFR-TK
1. 2 mg/ml of PGT was diluted with PBS to 0.2 mg/ml. The resulting solution was added into elisa plate by 50 μl per well. The plate was placed in a refrigerator at 4° C. and coated overnight.
2. The coating solution was discarded to stop coating. The plate was washed three times with PBS, and then beaten to dryness.
3. The elisa plate was placed in a refrigerator at 4° C., drained out and stood for 2h.
4. The mother liquid of aqueous solution of each compound was diluted with double distilled water to four folds, i.e. a desirable concentration. Then, the compound was diluted and added in the corresponding elisa well by 25 μl/well.
5. […] of ATP solution was diluted with double distilled water to 50 folds and then sufficiently mixed. The resulting solution was separately added in each elisa well by 25 μl per well (except for the negative control).
6. EGFR kinase was diluted with 2×TKB to 800 folds. The solution was added in elisa well with 50 μl per well. Then, the enzyme reaction began. The elisa plate was immediately placed on a micro-oscillator and shaked to react for 20 min at the room temperature.
7. 2% of SDS was added in the elisa well to stop the reaction by adding 100 μl of SDS into each well. The solution was sufficiently mixed on the micro-oscillator to sufficiently mix for about 5 min.
8. The reaction solution was sucked out. The plate was washed four times with PBST. After the plate was beaten to dryness, 0.25 μg/ml of mice anti-phosphorylation tyrosine-HRP antibody which was diluted with blocking solution (3% solution of BSA in PBST) was added in the plate by 100 μl per well. The mixture was reacted for 30 min at the room temperature.
9. The antibody reaction solution was sucked out. The plate was washed four times with PBST. After the plate was beated to dryness, TMB peroxidase substrate was added to the plate by 100 μl/well. The mixture reacted in the dark for 15 min at the room temperature.
10. 100 μl of 2N H2SO4 was added in the plate to stop the chromogenic reaction. After the bubbles were cleansed, OD values were determined in ELIASA at 450 nm.
11. Formula for calculating inhibition percentage: […]

[2] = test system: NCI-H1650 cells; experiment: NCI-H1650 Cell Growth Inhibition Test (SRB Assay); format: cell-based; conditions: Homo sapiens, 72 h incubation
Protocol: NCI-H1650 Cell Growth Inhibition Test (SRB Assay)
1. Cell strains: NCI-H1650 (human non-small cell lung cancer cell strains);
2. SRB, 0.4% (w/v) working solution was formulated with 1% glacial acetic acid and reserved at 4° C.; antitumor compounds; DMSO
1. A plate (10 cm) of cells in logarithmic growth phase normally cultured was collected;
2. The culture solution was sucked out. The plate was washed with 5 mL of PBS 1-2 times;
3. 1.5 mL of 0.25% pancreatin was added to the plate to infiltrate the cells;
4. The pancreatin was sucked out. The culture plate was placed in an incubator. Digestion was carried out for about 3 min at 37° C.;
5. 4 mL of complete culture solution was added to the culture plate to stop the digestion. The cells were carefully scoured with micropipette (1 ml) to give a uniform single cell suspension. The suspensin was implanted into a 96-well cell culture plate by 6000 cells/100 μl per well. The culture plate was incubated overnight under 5% CO2 at 37° C. In day 2, 100 μl of culture solution comprising a compound was added in each well, and further incubated for 72 h under 5% CO2 at 37° C.;
6. The culture solution was sucked out. 100 uL of TCA fixed cells which were diluted to 10% were added to each well. The plate was kept in a refrigerator for 1 h at 4° C.
7. TCA stationary liquid was sucked out. Each well was washed with 150 μL of ddH2O five times;
8. After the stationary liquid was cleansed, the plate was dried in the air at the room temperature;
9. 60 μL of SRB staining solution was added in each well. The well was stained for 15 min at the room temperature;
10. The SRB staining solution was sucked out. Each well was washed with 150 μL of 1% glacial acetic acid five times;
11. After the SRB staining solution was cleansed, the plate was dried in the air at the room temperature;
12. 100 μL of 10 mM Tris was added in each well, the plate was vibrated to dissolve out SRB;
13. OD values were determined at 570 nM.
1. Calculation of Relative Inhibition Ratio The inhibition ratio of a compound on cell growth=(PC−n)/(PC−NC)×100%
IC50: Concentration of a compound where inhibition ratio was 50%. IC50 values were fitted with Origin7.5.

[3] = test system: BxPc-3 cells; experiment: BxPc-3 Cell Growth Inhibition Test (MTT Assay); format: cell-based; conditions: Homo sapiens, 72 h incubation
Protocol: BxPc-3 Cell Growth Inhibition Test (MTT Assay) Cell strains: BxPC-3 (human pancreatic cancer cell strains); Culture medium: 90% RPMI-1640+10% FBS; 1. A plate (10 cm) of cells in logarithmic growth phase normally cultured was collected; 2. The culture solution was sucked out. […] The plate was washed with 5 ml of PBS 1-2 times; 3. PBS was sucked out. 1.5 ml of 0.25% pancreatin was added to infiltrate the cells for 1 min; 4. The pancreatin was sucked out. The culture plate was placed in an incubator. Digestion was carried out for about 5 min at 37° C.; 5. 4.5 ml of complete culture solution was added to the culture plate to stop the digestion. The cells were carefully scoured with micropipette (1 ml) to give a uniform cell suspension. The suspension was implanted into a 96-well cell culture plate by 5000 cells/100 μl per well. The culture plate was incubated overnight under 5% CO2 at 37° C. In day 2, 100 μl of culture solution comprising a compound was added in each well, and further incubated for 72 h under 5% CO2 at 37° C. 6. The culture solution was sucked out; 7. 100 μl of serum-free culture solution containing 0.5 mg/ml MTT was added in each well, and incubated for 3 h; 8. The culture solution was carefully sucked out; 9. 100 μl of DMSO was added in each well and vibrated to dissolve; 10. OD values were determined at […]. 1. Calculation of Relative Inhibition Ratio The inhibition ratio of a compound on cell growth=(PC−n)/(PC−NC)×100% IC50: Concentration of a compound where inhibition ratio was 50%. IC50 values were fitted with Origin7.5.

`CN(C)C/C=C/C(=O)Nc1cc2c(Nc3ccc(F)c(Cl)c3)c(C#N)cnc2cc1OC1CCOC1` (centres unmarked) [Example 4, (E)-N-(4-(3-CHLORO-4-FLUOROPHENYLAMINO)-3-CYANO-7-(TETRAHYDROFURAN-3-YL-OXY)QUINOLIN-6-YL)-4-(DIMETHYLAMINO)-BUT-2-ENAMIDE] was tested. Which pEC50 [1] did it give?
Its pEC50 is 7.38.

With `C#Cc1cccc(Nc2c(C#N)cnc3cc(OC4CCOC4)c(NC(=O)/C=C/CN(C)C)cc23)c1` (centres unmarked) [Example 5, (E)-N-(3-CYANO-4-(3-ETHYNYLPHENYLAMINO)-7-(TETRAHYDROFURAN-3-YL-OXY)QUINOLIN-6-YL)-4-(DIMETHYLAMINO)-BUT-2-ENAMIDE] as the compound, how does the pEC50 [1] read?
Its pEC50 is 7.36.

What does the source list for `CN(C)C/C=C/C(=O)Nc1cc2c(Nc3ccc(OCc4cccc(F)c4)c(Cl)c3)c(C#N)cnc2cc1OC1CCOC1` (centres unmarked) [Example 9, (E)-N-(4-(4-(3-FLUOROBENZYLOXY)-3-CHLOROPHENYLAMINO)-3-CYANO-7-(TETRAHYDROFURAN-3-YL-OXY)QUINOLIN-6-YL)-4-(DIMETHYLAMINO)-BUT-2-ENAMIDE]?
pEC50 [1]: 6.87; pIC50 [2]: 6.20

`CN(C)C/C=C/C(=O)Nc1cc2c(Nc3ccc(OCc4ccccn4)c(Cl)c3)c(C#N)cnc2cc1OC1CCOC1` (centres unmarked) [Example 21, (E)-N-(4-(3-CHLORO-4-(PYRIDIN-2-YL-METHOXY)PHENYLAMINO)-3-CYANO-7-(TETRAHYDROFURAN-3-YL-OXY)QUINOLIN-6-YL)-4-(DIMETHYLAMINO)-BUT-2-ENAMIDE] was tested. Which pEC50 [1] did it give?
Its pEC50 is 6.81.

What does the source list for `CN(C)C/C=C/C(=O)Nc1cc2c(Nc3ccc(OCc4ccccn4)c(Cl)c3)c(C#N)cnc2cc1O[C@H]1CCOC1` [Example 138, (S,E)-N-(4-(3-CHLORO-4-(PYRIDIN-2-YL-METHOXY)PHENYLAMINO)-3-CYANO-7-(TETRAHYDROFURAN-3-YL-OXY)QUINOLIN-6-YL)-4-(DIMETHYLAMINO)-BUT-2-ENAMIDE]?
pIC50 [3]: 6.47; pEC50 [1]: 6.96; pIC50 [2]: 5.96

With `CN(C)C/C=C/C(=O)Nc1cc2c(Nc3ccc(OCc4ccccn4)c(Cl)c3)c(C#N)cnc2cc1O[C@@H]1CCOC1` [Example 139, (R,E)-N-(4-(3-CHLORO-4-(PYRIDIN-2-YL-METHOXY)PHENYLAMINO)-3-CYANO-7-(TETRAHYDROFURAN-3-YL-OXY)QUINOLIN-6-YL)-4-(DIMETHYLAMINO)-BUT-2-ENAMIDE] as the compound, how does the pIC50 [3] read?
The pIC50 was 6.73.

What about the pIC50 [2] of the same compound?
The pIC50 was 5.95.

How did the pIC50 [3] turn out when `CN(C)C/C=C/C(=O)Nc1cc2c(Nc3ccc(F)c(Cl)c3)c(C#N)cnc2cc1O[C@H]1CCOC1` [Example 142, (S,E)-N-(4-(3-CHLORO-4-FLUOROPHENYLAMINO)-3-CYANO-7-(TETRAHYDROFURAN-3-YL-OXY)QUINOLIN-6-YL)-4-(DIMETHYLAMINO)-BUT-2-ENAMIDE] was run?
Its pIC50 is 6.38.
